Reference: patent publication US10471043B2, “Compounds and methods of treating bacterial infections” (ULTUPHARMA AB, priority 2015, dated 2019)
In brackets after ≈: the same amount, converted by molar mass. Where two headings read alike, the source gives them in different places.

How the values were obtained:
[1] = test system: mupirocin-resistant strains of Staphylococcus aureus; experiment: MIC against mupirocin-resistant strains; type: cell-based; conditions: Staphylococcus aureus; S. aureus V55, mupirocin-resistant; read-out: MIC
Method: (§1) At first (Table 1), MIC is determined by broth micro-dilution method. The test medium is Antibiotic Medium 3 (AM3; Difco Ltd) mixed with Phosphate Buffered Saline (PBS) in proportions 1:1. Selected MIC values are verified using cation-adjusted Mueller Hinton Broth (MHB; BD). Cell concentration of tested pathogen is adjusted to between 3 and 5×10^5 cells per ml. To verify cell concentration of tested pathogen, viable cell counts are performed directly after each MIC-test by dilution method with PBS as a dilution solvent. Cells are counted on the agar plates with 50% strength Vegetable Peptone Broth (50% VPB; Oxoid Ltd) after 16 to 20 h of incubation at 37° C.
(§2) Cells of pathogen suspended in test medium are distributed to the wells and the plates are incubated for 16 to 20 h at 37° C. Negative controls are wells with the test medium only and positive controls are wells with the pathogen in test medium. The MIC is defined as the lowest concentration of each compound with no visible growth of pathogen.

Proteus mirabilis = experiment: MIC panel of Gram-negative bacteria (Table 7); type: cell-based
M. frederiksbergense = experiment: MIC by broth micro-dilution; type: cell-based; conditions: Table 4; read-out: MIC (μg/ml) M. frederiksbergense
Method: as §1, §2

A. baumannii = experiment: MIC by broth micro-dilution; type: cell-based; conditions: A. baumannii (G−), Table 2
Method: as §1, §2

Bacillus cereus = experiment: MIC by broth micro-dilution; type: cell-based; conditions: Table 4, read-out: MIC (μg/ml) B. cereus
Method: as §1, §2

A. baumanii = experiment: MIC panel of Gram-negative bacteria (Table 7); type: cell-based
E. faecalis = experiment: Antimicrobial Susceptibility Test by Broth Microdilution, M07-A9 CLSI; type: cell-based; conditions: Enterococcus faecalis
Micrococcus luteus = experiment: MIC panel of Gram-negative bacteria (Table 7); type: cell-based; conditions: EN0455 Micrococcus luteus G+ PKL 3693
E. coli = experiment: MIC panel of Gram-negative bacteria (Table 7); type: cell-based; conditions: Escherichia coli
Enterobacter aerogenes = experiment: MIC panel of Gram-negative bacteria (Table 7); type: cell-based; conditions: Klebsiella aerogenes; EN0461 Enterobacter aerogenes G− PKL 3706
in vitro [2] = conditions: human, Caco-2
S. pneumoniae = experiment: Antimicrobial Susceptibility Test by Broth Microdilution, M07-A9 CLSI; type: cell-based; conditions: Streptococcus pneumoniae
Serratia marescens = experiment: MIC panel of Gram-negative bacteria (Table 7); type: cell-based; conditions: EN0454 Serratia marescens G− PKL 3692
S. pyogenes = experiment: Antimicrobial Susceptibility Test by Broth Microdilution, M07-A9 CLSI; type: cell-based; conditions: Streptococcus pyogenes
[3] = test system: Staphylococcus aureus strain LMG15975; experiment: MIC by broth micro-dilution, AM3/PBS 1:1; type: cell-based
Method: as §1, §2
Example compounds of formula I were examined for antibacterial activity against the Gram-positive bacterium Staphylococcus aureus strain LMG15975 using the above described method (Table 1).

HepG2 cells = conditions: human, 48 h
K. pneumoniae = experiment: MIC panel of Gram-negative bacteria (Table 7); type: cell-based; conditions: Klebsiella pneumoniae
A. Pittii/nosocomialis = experiment: MIC panel of Gram-negative bacteria (Table 7); type: cell-based; conditions: Acinetobacter pittii; EN0180 A. Pittii/nosocomialis G−
K. oxytoca = experiment: MIC panel of Gram-negative bacteria (Table 7); type: cell-based; conditions: Klebsiella oxytoca; EN0392 K. oxytoca G−
in vitro [4] = conditions: human, CC50 (μg/mL)
Citrobacter sp. = experiment: MIC panel of Gram-negative bacteria (Table 7); type: cell-based; conditions: EN0465 Citrobacter sp. G− PKL 3710
S. typhimurium = experiment: MIC panel of Gram-negative bacteria (Table 7); type: cell-based; conditions: Salmonella enterica; EN0466 S. typhimurium G− TH6509
E. faecium = experiment: Antimicrobial Susceptibility Test by Broth Microdilution, M07-A9 CLSI; type: cell-based
S. epidermidis = experiment: as above; type: cell-based; conditions: Staphylococcus epidermidis
S. aureus = experiment: as above; type: cell-based; conditions: Staphylococcus aureus

With CCCCCCCCCC1CC(O)=C(C(=O)CCC)C(=O)O1 (stereo not shown) [Ex. 1, 3-Butyryl-6-nonyl-4-hydroxy-5,6-dihydro-2H-pyran-2-one] the MIC [1] was at most 0.1 µg/mL, the MIC (Proteus mirabilis; EN0445 P. mirabilis ST19 G−) was over 64 µg/mL and the MIC (Proteus mirabilis; EN0457 Proteus mirabilis G− PKL 3695, read-out: MIC) was over 64 µg/mL. The MIC (M. frederiksbergense) was at most 0.5 µg/mL, the “MIC (μg/ml) A. baumannii” value (A. baumannii) was 8 to 16 µg/mL and the MIC (A. baumannii; Acinetobacter baumannii, read-out: MIC (μg/ml) A. baumannii) was 16 to 24 µg/mL (≈ 51.5 to 77.3 µM). The MIC (Bacillus cereus) was at most 1 µg/mL, the MIC (A. baumanii; Acinetobacter baumannii, EN007 A. baumanii WT, ENABLE Primary MIC panel, read-out: MIC) was over 64 µg/mL and the MIC (A. baumanii; EN0016 A. baumanii, ENABLE L2C MIC panel) was over 64 µg/mL. For the same molecule, the MIC (A. baumanii; EN0017 A. baumanii Efflux mut, ENABLE L2C MIC panel) was over 64 µg/mL, the MIC (E. faecalis; E. faecalis E.cocco 12, Vancomycin -resistant) was 2 µg/mL (≈ 6.44 µM) and the MIC (E. faecalis; E. faecalis E.cocco 24, Vancomycin -sensitive, Table 6) was 2 µg/mL (≈ 6.44 µM). The MIC (E. faecalis; E. faecalis 24, Vancomycin-sensitive, Table 5) was 2 µg/mL (≈ 6.44 µM), the MIC (Micrococcus luteus) was 0.5 µg/mL (≈ 1.61 µM) and the MIC (E. coli; EN001 E. coli WT, ENABLE Primary MIC panel) was over 64 µg/mL. The MIC (E. coli; EN002 E. coli DtolC, ENABLE Primary MIC panel) was 4 µg/mL (≈ 12.9 µM), the MIC (E. coli; EN003 E. coli D22 (lps mut), ENABLE Primary MIC panel) was over 64 µg/mL and the MIC (E. coli; EN0012 E. coli, ENABLE L2C MIC panel) was over 64 µg/mL. The MIC (E. coli; EN0013 E. coli Del-tolC, ENABLE L2C MIC panel) was 0.5 µg/mL (≈ 1.61 µM), the MIC (E. coli; EN0458 E. coli B G− PKL 3698) was over 64 µg/mL and the MIC (Enterobacter aerogenes) was over 64 µg/mL. The Papp at 120 min, 10 μM (in vitro [2]) was 53 ×10⁻⁶ cm/s, the MIC (S. pneumoniae; ATCC49619, S. pneumoniae ATCC 49619, QC strain) was 4 µg/mL (≈ 12.9 µM) and the MIC (S. pneumoniae; BAA1407, S. pneumoniae BAA1407, Macrolide-resistant (M + MLS)) was 8 µg/mL. For the same molecule, the MIC (S. pneumoniae; S. pneumoniae 19A-TN, Quinolone-sensitive) was 8 µg/mL (≈ 25.8 µM), the MIC (S. pneumoniae; S. pneumoniae 158bg, Macrolide-resistant (M)) was 4 µg/mL (≈ 12.9 µM) and the MIC (S. pneumoniae; S. pneumoniae 956, Macrolide-resistant (MLSc)) was 4 µg/mL (≈ 12.9 µM). The MIC (S. pneumoniae; S. pneumoniae SP030, Macrolide- sensitive) was 8 µg/mL (≈ 25.8 µM), the MIC (S. pneumoniae; S. pneumoniae TE 122-024, Quinolone-resistant) was 8 µg/mL (≈ 25.8 µM) and the MIC (S. pneumoniae; S. pneumoniae TE 122-026, Tetracycline-resistant) was 4 µg/mL (≈ 12.9 µM). The MIC (Serratia marescens) was over 64 µg/mL, the MIC (S. pyogenes; S. pyogenes 2 Finland, Macrolide-resistant (M)) was 8 µg/mL (≈ 25.8 µM) and the MIC (S. pyogenes; S. pyogenes 29A-TF, Macrolide- sensitive) was 8 µg/mL (≈ 25.8 µM). The MIC (S. pyogenes; S. pyogenes 21 Finland, Macrolide-resistant (MLSc)) was 8 µg/mL (≈ 25.8 µM), the MIC ([3]; LMG15975, S. aureus (G+), Table 2, read-out: MIC (μg/ml) S. aureus) was 0.8 µg/mL and the MIC ([3]; LMG15975, S. aureus LMG 15975 (SLU), Methicillin-resistant, Table 5, read-out: MIC (μg/mL)) was 0.8 µg/mL. The MIC ([3]; LMG15975, S. aureus LMG15975, Table 1, read-out: MIC) was 2.5 µM, the MIC ([3]; LMG15975, S. aureus LMG15975, Table 1, read-out: MIC (μg/ml)) was 0.8 µg/mL and the MIC ([3]; LMG15975, Table 4, read-out: MIC (μg/ml) S. aureus) was 0.8 µg/mL. For the same molecule, the CC50 (HepG2 cells) was 38 µM, the MIC (K. pneumoniae; EN006 K. pneumoniae WT, ENABLE Primary MIC panel) was over 64 µg/mL and the MIC (K. pneumoniae; EN0010 K. pneumoniae, ENABLE L2C MIC panel (isogenic efflux pairs)) was over 64 µg/mL. For the same molecule, the MIC (K. pneumoniae; EN0011 K. pneumoniae Efflux mut, ENABLE L2C MIC panel) was 8 µg/mL (≈ 25.8 µM), the MIC (A. Pittii/nosocomialis) was over 64 µg/mL and the MIC (K. oxytoca) was over 64 µg/mL. The CC50 at 48 h (in vitro [4]) was 33 µM, the MIC (Citrobacter sp.) was over 64 µg/mL and the MIC (S. typhimurium) was over 64 µg/mL. For the same molecule, the “MIC” value (E. faecium; E. faecium E.coc 7, Vancomycin -resistant, Table 6) was 2 µg/mL (≈ 6.44 µM), the MIC (E. faecium; Enterococcus faecium, E. faecium 7, Vancomycin-resistant, Table 5, read-out: MIC) was 2 µg/mL (≈ 6.44 µM) and the MIC (S. epidermidis; MRSE, S. epidermidis TA12, MRSE, Table 6) was 2 µg/mL (≈ 6.44 µM). The MIC (S. epidermidis; S. epidermidis RO7, MSSE, Table 6) was 1 µg/mL (≈ 3.22 µM), the MIC (S. epidermidis; S. epidermis RO7, Methicillin-sensitive, Table 5) was 1 µg/mL (≈ 3.22 µM) and the MIC (S. epidermidis; S. epidermis TA12, Methicillin-resistant, Table 5) was 2 µg/mL (≈ 6.44 µM). For the same molecule, the MIC (S. aureus; ATCC29213, S. aureus ATCC29213, QC strain, Table 5) was 4 µg/mL (≈ 12.9 µM), the MIC (S. aureus; ATCC29213, S. aureus ATCC 29213, QC strain, Table 6) was 4 µg/mL (≈ 12.9 µM) and the MIC (S. aureus; MRSA, S. aureus PICI, Table 6) was 4 µg/mL (≈ 12.9 µM). It also gave an MIC (S. aureus; MSSA, S. aureus MO 17, MSSA, Table 6) of 2 µg/mL (≈ 6.44 µM), an MIC (S. aureus; S. aureus 6 Holland, Macrolide-resistant (M)) of 1 µg/mL (≈ 3.22 µM) and an MIC (S. aureus; S. aureus 56 Japan, Macrolide-resistant (MLSi)) of 4 µg/mL (≈ 12.9 µM). For the same molecule, the MIC (S. aureus; S. aureus 853E, Macrolide-sensitive) was 2 µg/mL (≈ 6.44 µM), the MIC (S. aureus; S. aureus 4216, Tetracycline-resistant) was 2 µg/mL (≈ 6.44 µM) and the MIC (S. aureus; S. aureus 4384 (SSI), Methicillin-resistant) was 2 µg/mL (≈ 6.44 µM). For the same molecule, the MIC (S. aureus; S. aureus FR 131, Quinolone-resistant) was 2 µg/mL (≈ 6.44 µM), the MIC (S. aureus; S. aureus MO17, Methicillin-sensitive, Table 5) was 2 µg/mL (≈ 6.44 µM) and the MIC (S. aureus; S. aureus PICI, Methicillin-resistant, Table 5) was 4 µg/mL (≈ 12.9 µM). It also gave an MIC (S. aureus; S. aureus PK2, Macrolide-resistant (MLSc)) of 2 µg/mL (≈ 6.44 µM).
